For assay [1], the system named is MRSA ATCC43300. Briefly: Membrane damaging properties, SYTOX Green fluorescence (Example 4). Particulars: for fluorescence intensity ratio of SYTOX Green (control PBS = 1): 37° C., 15 minutes, EGCG derivative 4-32, EGCG 8-128, NISIN 1-8 μg/ml, FIG. 3. The format is cell-based, Staphylococcus aureus. Here is the method:
As an antibacterial agent, the EGCG-C16 prepared in Example 1 was used in Example 4; EGCG was used in Comparative Example 4; and membrane-damaging peptide NISIN (MP Biomedicals) was used in a reference example. Antibacterial agent solutions of EGCG-C16 and EGCG were prepared by dissolving them in DMSO so as to achieve top concentrations, respectively. An antibacterial agent solution of the other antibacterial agent was prepared by dissolving it in PBS and diluted with PBS as appropriate. The influence of DMSO used for dissolving the antibacterial agents also was considered.
MSSA ATCC25923 and MRSA ATCC43300 were subjected to shaking culture in MH-broths (Difco) until they reached a late stage in the exponential growth phase. The thus-obtained culture solutions were each centrifuged at 7000 rpm for 10 minutes, and bacterial cells that had settled were suspended in PBS. The suspension of the bacterial cells was added to wells of a 384 black plate, and each of the antibacterial agent solutions was further added thereto and mixed. The resultant mixture was incubated at 37° C. for 15 minutes. Subsequently, a dead cell-staining dye (trade name “SYTOX Green”, LONZA) was mixed in each well so that the concentration thereof became 10 μmol/l, and the resultant mixture was incubated at 37° C. for 10 minutes. The final concentrations of the respective antibacterial agents were as follows: 4, 8, 16, and 32 μg/ml for the EGCG derivative; 8, 16, 32, 64, and 128 μg/ml for EGCG; and 1, 2, 4, and 8 μg/ml for NISIN. […] On the other hand, as a control, the fluorescence intensity was measured in the same manner, except that PBS or 10% DMSO was added instead of the antibacterial agent solutions. Then, regarding each of the MSSA and MRSA, the ratio of the fluorescence intensity when each of the agents was added was calculated assuming that the fluorescence intensity obtained in the control (PBS) was 1.

In the next assay the test system is MSSA ATCC25923. Briefly: MIC with addition of PG, LPS or D-Ala-D-Ala (Example 3). The format is cell-based, Staphylococcus aureus. Conditions: MSSA (ATCC25923). The protocol:
(§1) Regarding EGCG-C16, whether or not the antibacterial action thereof against MSSA and MRSA is inhibited by the addition of: peptidoglycan (PG) or D-Ala-D-Ala, which are each a cell wall component; or lipopolysaccharide (LPS), which is an outer membrane component, was examined. The MIC measurement was carried out in the manner described in Section (2) of Example 2.
(§2) In Example 3, EGCG-C16 prepared in Example 1 was used as an antibacterial agent. In Comparative Example 3, unsubstituted EGCG was used as an antibacterial agent. […] Antibacterial agent solutions of EGCG-C16 and EGCG were prepared in the same manner as described in Section (2) of Example 1. Antibacterial agent solutions of the antibacterial agents other than EGCG-C16 and EGCG were prepared by dissolving them in PBS.
(§3) As additives, PG (Peptidoglycan Staphylococcus aureus, SIGMA-ALDRICH), D-Ala-D-Ala (SIGMA-ALDRICH), and LPS (Lipopolysaccharide Salmonella, SIGMA-ALDRICH) were provided. Each of the additives was dissolved in PBS, and the resultant solution was used as an additive solution.
(§4) Dilution series of the antibacterial agent solutions were prepared. Each of them was dispensed to a 96-well plate. Further, the additive solution was added thereto and mixed. After that, a bacterial culture solution of MRSA ATCC43300 or MSSA ATCC25923 was added thereto and cultured at 37° C. for 18 hours. In the mixture of the antibacterial agent solution, the additive solution, and the bacterial culture solution, the final concentrations of PG, D-Ala-D-Ala, and LPS were each set to 30 μg/ml. Unless otherwise stated, the minimum inhibitory concentration (MIC) was calculated in the same manner as described in Section (2) of Example 2.

The test system of assay [2] is MRSA ATCC43300. The description is as above. It is filed as cell-based, Staphylococcus aureus. Conditions: MRSA (ATCC43300). Here is the method:
as §1, §2, §3, §4

The next assay concerns fungi. Put plainly: Antifungal effect over the fungi of Table 8. It is filed as cell-based. Particulars: respective types of fungi of Table 8. Here is the method: Regarding the respective type strains shown in Tables 7 and 8 below, the MIC measurement was performed using the antibacterial agent solutions of Example 2 in the same manner as described in Section (2) of Example 1, except for the following. The antibacterial agent solutions were prepared by dissolving the EGCG derivatives of Example 2 in 100% DMSO and then diluting the resultant mixtures with sterile distilled water. The respective strains were derived from ATCC or NCTC. As Moraxella catarrhalis and Aspergillus fumigatus, clinical isolates thereof without an acquired resistance mechanism were used. For nutrient-rich bacteria, namely, Streptococcus pneumoniae ATCC49619, Streptococcus pyogenes ATCC19615, Streptococcus agalactiae ATCC13813, Moraxella catarrhalis, and Haemophilis influenzae ATCC49766, Strepto Haemo supplement (Eiken Chemical Co., Ltd.) was added to media for culturing them. The MIC measurement with respect to fungi was carried out by a broth microdilution method using a RPMI1640/MOPS (pH 7.0) medium in accordance with CLSI guidelines. About 2×10^3 cells/ml of fungi were inoculated to the medium. After the culture at 35° C. for 24 to 48 hours, the MIC was determined. Also, regarding the antibacterial agent solution of Comparative Example 2, the MIC was measured in the same manner.

Setting [3] is: +LPS (30 μg/mL), upper part of Table 9.
Where [4] appears, read: +PG (30 μg/mL), upper part of Table 9 (PG/LPS series).
Where [5] appears, read: MH-broth free of additives, upper part of Table 9 (PG/LPS series).
[6] abbreviates: +D-Ala-D-Ala (30 μg/mL), lower part of Table 9.
Where [7] appears, read: +PG (30 μg/mL), lower part of Table 9 (PG/D-Ala-D-Ala series).
[8] abbreviates: MH-broth free of additives, lower part of Table 9 (PG/D-Ala-D-Ala series).

With `O=C(O[C@@H]1Cc2c(O)cc(O)cc2O[C@@H]1c1cc(O)c(O)c(O)c1)c1cc(O)c(O)c(O)c1` [EGCG, Epigallocatechin gallate, reference compound], the “fluorescence intensity ratio of SYTOX Green (control PBS = 1)” value in the assay with MRSA ATCC43300 [1] was “smaller than 1”. Besides, the MIC against MSSA ATCC25923 (setting [3]), against MSSA ATCC25923 (setting [4]), against MSSA ATCC25923 (setting [5]), against MRSA ATCC43300 [2] (setting [3]), in the assay on MRSA ATCC43300 [2] (setting [4]) and in the assay on MRSA ATCC43300 [2] (setting [5]) was above 64 µg/mL throughout.

Regarding EGCG-α-linoleate [EGCG-C18TE], the antifungal effect entry in the assay on fungi is given as “highest antifungal effect”.

EGCG-palmitoleate [EGCG-C16E]: in the assay with fungi, the antifungal effect entry is “highest antifungal effect”.

Consider EGCG-palmitate [EGCG-C16], for which the “fluorescence intensity ratio of SYTOX Green (control PBS = 1)” value with MRSA ATCC43300 [1] is “very high fluorescence intensity ratio”. For the same compound, in the assay on MRSA ATCC43300 [1] (EGCG-C16 at 64 μg/ml), the “cell membrane-damaging action at high concentration (SYTOX Green)” value is on record as “tendency for this action of EGCG-C16 to become weak”. Further, the minimum inhibitory concentration (MIC) in the assay on MSSA ATCC25923 (setting [6]) came out at 16 µg/mL; in the assay with MSSA ATCC25923 (setting [3]), 16 µg/mL; in the assay on MSSA ATCC25923 (setting [7]), 32 µg/mL; with MSSA ATCC25923 (setting [4]) it was 32 µg/mL; with MSSA ATCC25923 (setting [8]) it was 16 µg/mL; in the assay with MSSA ATCC25923 (setting [5]) it was 16 µg/mL. In addition, the MIC amounted to 8 µg/mL with MRSA ATCC43300 [2] (setting [6]); 16 µg/mL against MRSA ATCC43300 [2] (setting [3]); 16 µg/mL in the assay with MRSA ATCC43300 [2] (setting [7]); 32 µg/mL in the assay with MRSA ATCC43300 [2] (setting [4]); 8 µg/mL with MRSA ATCC43300 [2] (setting [8]); 16 µg/mL in the assay with MRSA ATCC43300 [2] (setting [5]).

The values above are taken from patent US9801850B2, “Antibacterial agent” (OSAKA UNIVERSITY, priority 2009, dated 2017).
